Laboratory results from ChEMBL document CHEMBL2321853, “Novel acylethanolamide derivatives that modulate body weight through enhancement of hypothalamic pro-opiomelanocortin (POMC) and/or decreased neuropeptide Y (NPY)” (J Med Chem, 2013).
The source made the active and inactive calls. The rule behind the calls is not given here.

Tests used:
[1] = target: Transient receptor potential cation channel subfamily V member 1 (Mus musculus) (UniProt Q704Y3); assay: Displacement of [3H]resiniferatoxin from TRPV1 in mouse cortical slices
Transient receptor potential cation channel subfamily V member 1 (Mus musculus), sequence (Q704Y3 whole entry): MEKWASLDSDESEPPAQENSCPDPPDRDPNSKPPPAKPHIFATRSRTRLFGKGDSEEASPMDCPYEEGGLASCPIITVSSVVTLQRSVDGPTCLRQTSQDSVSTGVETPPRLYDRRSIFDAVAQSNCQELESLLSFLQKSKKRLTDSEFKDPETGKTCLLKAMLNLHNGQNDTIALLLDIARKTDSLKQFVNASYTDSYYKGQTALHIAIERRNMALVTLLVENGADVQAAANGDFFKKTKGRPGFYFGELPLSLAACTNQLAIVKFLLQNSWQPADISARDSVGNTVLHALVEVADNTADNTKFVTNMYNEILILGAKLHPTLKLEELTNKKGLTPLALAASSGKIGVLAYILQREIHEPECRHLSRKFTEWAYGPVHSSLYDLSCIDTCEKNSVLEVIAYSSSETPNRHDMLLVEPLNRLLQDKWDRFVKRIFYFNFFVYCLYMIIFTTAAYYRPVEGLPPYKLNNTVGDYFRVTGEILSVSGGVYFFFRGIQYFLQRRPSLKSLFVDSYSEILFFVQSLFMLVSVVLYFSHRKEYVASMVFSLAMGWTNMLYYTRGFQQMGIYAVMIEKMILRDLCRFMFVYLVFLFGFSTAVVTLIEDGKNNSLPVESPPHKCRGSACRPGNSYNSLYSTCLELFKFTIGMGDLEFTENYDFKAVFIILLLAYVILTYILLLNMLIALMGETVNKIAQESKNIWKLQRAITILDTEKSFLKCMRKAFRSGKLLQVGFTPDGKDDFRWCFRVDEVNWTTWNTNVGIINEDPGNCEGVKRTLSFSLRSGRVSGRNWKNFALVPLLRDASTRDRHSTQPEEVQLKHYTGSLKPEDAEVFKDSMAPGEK

Mus musculus [2] = assay: Antiobesity activity in Sabra mouse assessed as reduction in body weight at 1 mg/kg, ip administered on day 0, 10, 11, 12, 24, 29 measured on day 39 relative to control; type: functional; set-up: scale not given: the % may be the effect or the level left; settings: route intraperitoneal
Mus musculus [3] = assay: Antiobesity activity in Sabra mouse assessed as reduction in body weight at 1 mg/kg, ip administered on day 0, 10, 11, 12, 24, 29 measured on day 36 relative to control; type: functional; set-up: scale not given: the % may be the effect or the level left; settings: route intraperitoneal
Mus musculus [4] = assay: Antiobesity activity in Sabra mouse assessed as reduction in body weight at 1 mg/kg, ip administered on day 0, 10, 11, 12, 24, 29 measured on day 29 relative to control; type: functional; set-up: scale not given: the % may be the effect or the level left; settings: route intraperitoneal
Mus musculus [5] = assay: Antiobesity activity in Sabra mouse assessed as reduction in body weight at 1 mg/kg, ip administered on day 0, 10, 11, 12, 24, 29 measured on day 33 relative to control; type: functional; set-up: scale not given: the % may be the effect or the level left; settings: route intraperitoneal
Mus musculus [6] = assay: Antiobesity activity in Sabra mouse assessed as reduction in body weight at 1 mg/kg, ip administered on day 0, 10, 11, 12, 24, 29 measured on day 26 relative to control; type: functional; set-up: scale not given: the % may be the effect or the level left; settings: route intraperitoneal
Mus musculus [7] = assay: Antiobesity activity in Sabra mouse assessed as reduction in body weight at 1 mg/kg, ip administered on day 0, 10, 11, 12, 24, 29 measured on day 24 relative to control; type: functional; set-up: scale not given: the % may be the effect or the level left; settings: route intraperitoneal
Mus musculus [8] = assay: Antiobesity activity in Sabra mouse assessed as reduction in body weight at 1 mg/kg, ip administered on day 0, 10, 11, 12, 24, 29 measured on day 22 relative to control; type: functional; set-up: scale not given: the % may be the effect or the level left; settings: route intraperitoneal
Mus musculus [9] = assay: Antiobesity activity in Sabra mouse assessed as reduction in body weight at 1 mg/kg, ip administered on day 0, 10, 11, 12, 24, 29 measured on day 19 relative to control; type: functional; set-up: scale not given: the % may be the effect or the level left; settings: route intraperitoneal
Mus musculus [10] = assay: Antiobesity activity in Sabra mouse assessed as reduction in body weight at 1 mg/kg, ip administered on day 0, 10, 11, 12, 24, 29 measured on day 12 relative to control; type: functional; set-up: scale not given: the % may be the effect or the level left; settings: route intraperitoneal
Mus musculus [11] = assay: Antiobesity activity in C57BL/6 mouse assessed as change in cholesterol level at 5 mg/kg, ip measured on day 36 (reference value: 86.58 mg/dL); type: functional; settings: route intraperitoneal
Mus musculus [12] = assay: Antiobesity activity in C57BL/6 mouse assessed as change in AST level at 5 mg/kg, ip measured on day 36 (reference value: 146.7 IU/L); type: functional; settings: route intraperitoneal
Mus musculus [13] = assay: Antiobesity activity in C57BL/6 mouse assessed as change in triglyceride level at 5 mg/kg, ip measured on day 36 (reference value: 0.92 mg/dL); type: functional; settings: route intraperitoneal
Mus musculus [14] = assay: Antiobesity activity in C57BL/6 mouse assessed as change in glucose level in blood at 5 mg/kg, ip administered on day 1, 4, 5, 7, 17, 15, 19 measured on day 19 relative to control; type: functional; settings: route intraperitoneal
Mus musculus [15] = assay: Antiobesity activity in C57BL/6 mouse assessed as change in glucose level in blood at 5 mg/kg, ip administered on day 1, 4, 5, 7, 17, 15, 19 measured on day 15 relative to control; type: functional; settings: route intraperitoneal
Mus musculus [16] = assay: Antiobesity activity in C57BL/6 mouse assessed as change in glucose level in blood at 5 mg/kg, ip administered on day 1, 4, 5, 7, 17, 15, 19 measured on day 11 relative to control; type: functional; settings: route intraperitoneal
Mus musculus [17] = assay: Antiobesity activity in C57BL/6 mouse assessed as change in glucose level in blood at 5 mg/kg, ip administered on day 1, 4, 5, 7, 17, 15, 19 measured on day 9 relative to control; type: functional; settings: route intraperitoneal
Mus musculus [18] = assay: Antiobesity activity in C57BL/6 mouse assessed as change in glucose level in blood at 5 mg/kg, ip administered on day 1, 4, 5, 7, 17, 15, 19 measured on day 5 relative to control; type: functional; settings: route intraperitoneal
Mus musculus [19] = assay: Antiobesity activity in C57BL/6 mouse assessed as change in glucose level in blood at 5 mg/kg, ip administered on day 1, 4, 5, 7, 17, 15, 19 measured on day 3 relative to control; type: functional; settings: route intraperitoneal
Mus musculus [20] = assay: Antiobesity activity in C57BL/6 mouse assessed as weight loss at 5 mg/kg, ip administered on day 1, 4, 5, 7, 17, 15, 19 measured on day 19 relative to control; type: functional; settings: route intraperitoneal
Mus musculus [21] = assay: Antiobesity activity in C57BL/6 mouse assessed as weight loss at 5 mg/kg, ip administered on day 1, 4, 5, 7, 17, 15, 19 measured on day 17 relative to control; type: functional; settings: route intraperitoneal
Mus musculus [22] = assay: Antiobesity activity in C57BL/6 mouse assessed as weight loss at 5 mg/kg, ip administered on day 1, 4, 5, 7, 17, 15, 19 measured on day 15 relative to control; type: functional; settings: route intraperitoneal
Mus musculus [23] = assay: Antiobesity activity in C57BL/6 mouse assessed as weight loss at 5 mg/kg, ip administered on day 1, 4, 5, 7, 17, 15, 19 measured on day 12 relative to control; type: functional; settings: route intraperitoneal
Mus musculus [24] = assay: Antiobesity activity in C57BL/6 mouse assessed as weight loss at 5 mg/kg, ip administered on day 1, 4, 5, 7, 17, 15, 19 measured on day 11 relative to control; type: functional; settings: route intraperitoneal
Mus musculus [25] = assay: Antiobesity activity in C57BL/6 mouse assessed as weight loss at 5 mg/kg, ip administered on day 1, 4, 5, 7, 17, 15, 19 measured on day 9 relative to control; type: functional; settings: route intraperitoneal
Mus musculus [26] = assay: Antiobesity activity in C57BL/6 mouse assessed as weight loss at 5 mg/kg, ip administered on day 1, 4, 5, 7, 17, 15, 19 measured on day 8 relative to control; type: functional; settings: route intraperitoneal
Mus musculus [27] = assay: Antiobesity activity in C57BL/6 mouse assessed as weight loss at 5 mg/kg, ip administered on day 1, 4, 5, 7, 17, 15, 19 measured on day 5 relative to control; type: functional; settings: route intraperitoneal
Mus musculus [28] = assay: Antiobesity activity in C57BL/6 mouse assessed as weight loss at 5 mg/kg, ip administered on day 1, 4, 5, 7, 17, 15, 19 measured on day 3 relative to control; type: functional; settings: route intraperitoneal
Mus musculus [29] = assay: Enhancement of cognitive function in Sabra mouse at 1 mg/kg, ip administered on day 8, 12 and 43 by eight-arm maze test; type: functional, organism-based; set-up: dose 1 mg/kg
Mus musculus [30] = assay: Increase in ALT levels in Sabra mouse at 1 mg/kg, ip administered on day 8, 12 and 43 measured on day 74; type: ADME, organism-based; set-up: dose 1 mg/kg, route intraperitoneal; settings: in vivo
Mus musculus [31] = assay: Effect on neurological score in Sabra mouse assessed as change in neurological score at 1 mg/kg, ip administered on day 8, 12 and 43 by NSS method; type: functional, organism-based; set-up: dose 1 mg/kg
Mus musculus [32] = assay: Antiobesity activity in Sabra mouse assessed as change in body weight at 1 mg/kg, ip administered on day 8, 12 and 43 measured on day 71 relative to control; type: functional; settings: route intraperitoneal
Mus musculus [33] = assay: Antiobesity activity in Sabra mouse assessed as change in body weight at 1 mg/kg, ip administered on day 8, 12 and 43 measured on day 54 relative to control; type: functional; settings: route intraperitoneal
Mus musculus [34] = assay: Antiobesity activity in Sabra mouse assessed as change in body weight at 1 mg/kg, ip administered on day 8, 12 and 43 measured on day 50 relative to control; type: functional; settings: route intraperitoneal
Mus musculus [35] = assay: Antiobesity activity in Sabra mouse assessed as change in body weight at 1 mg/kg, ip administered on day 8, 12 and 43 measured on day 43 relative to control; type: functional; settings: route intraperitoneal
Mus musculus [36] = assay: Antiobesity activity in Sabra mouse assessed as change in body weight at 1 mg/kg, ip administered on day 8, 12 and 43 measured on day 36 relative to control; type: functional; settings: route intraperitoneal
Mus musculus [37] = assay: Antiobesity activity in Sabra mouse assessed as change in body weight at 1 mg/kg, ip administered on day 8, 12 and 43 measured on day 33 relative to control; type: functional; settings: route intraperitoneal
Mus musculus [38] = assay: Antiobesity activity in Sabra mouse assessed as change in body weight at 1 mg/kg, ip administered on day 8, 12 and 43 measured on day 29 relative to control; type: functional; settings: route intraperitoneal
Mus musculus [39] = assay: Antiobesity activity in Sabra mouse assessed as change in body weight at 1 mg/kg, ip administered on day 8, 12 and 43 measured on day 15 relative to control; type: functional; settings: route intraperitoneal
Mus musculus [40] = assay: Antiobesity activity in Sabra mouse assessed as change in body weight at 1 mg/kg, ip administered on day 8, 12 and 43 measured on day 12 relative to control; type: functional; settings: route intraperitoneal
Mus musculus [41] = assay: Antiobesity activity in Sabra mouse assessed as change in body weight at 1 mg/kg, ip administered on day 8, 12 and 43 measured on day 8 relative to control; type: functional; settings: route intraperitoneal
Mus musculus [42] = assay: Antiobesity activity in Sabra mouse assessed as change in body weight at 1 mg/kg, ip administered on day 8, 12 and 43 measured on day 5 relative to control; type: functional; settings: route intraperitoneal
[43] = target: Transient receptor potential cation channel subfamily V member 1 (Homo sapiens, UniProt Q8NER1); assay: Agonist activity at TRPV1 receptor (unknown origin)
Transient receptor potential cation channel subfamily V member 1, sequence (Q8NER1 whole entry): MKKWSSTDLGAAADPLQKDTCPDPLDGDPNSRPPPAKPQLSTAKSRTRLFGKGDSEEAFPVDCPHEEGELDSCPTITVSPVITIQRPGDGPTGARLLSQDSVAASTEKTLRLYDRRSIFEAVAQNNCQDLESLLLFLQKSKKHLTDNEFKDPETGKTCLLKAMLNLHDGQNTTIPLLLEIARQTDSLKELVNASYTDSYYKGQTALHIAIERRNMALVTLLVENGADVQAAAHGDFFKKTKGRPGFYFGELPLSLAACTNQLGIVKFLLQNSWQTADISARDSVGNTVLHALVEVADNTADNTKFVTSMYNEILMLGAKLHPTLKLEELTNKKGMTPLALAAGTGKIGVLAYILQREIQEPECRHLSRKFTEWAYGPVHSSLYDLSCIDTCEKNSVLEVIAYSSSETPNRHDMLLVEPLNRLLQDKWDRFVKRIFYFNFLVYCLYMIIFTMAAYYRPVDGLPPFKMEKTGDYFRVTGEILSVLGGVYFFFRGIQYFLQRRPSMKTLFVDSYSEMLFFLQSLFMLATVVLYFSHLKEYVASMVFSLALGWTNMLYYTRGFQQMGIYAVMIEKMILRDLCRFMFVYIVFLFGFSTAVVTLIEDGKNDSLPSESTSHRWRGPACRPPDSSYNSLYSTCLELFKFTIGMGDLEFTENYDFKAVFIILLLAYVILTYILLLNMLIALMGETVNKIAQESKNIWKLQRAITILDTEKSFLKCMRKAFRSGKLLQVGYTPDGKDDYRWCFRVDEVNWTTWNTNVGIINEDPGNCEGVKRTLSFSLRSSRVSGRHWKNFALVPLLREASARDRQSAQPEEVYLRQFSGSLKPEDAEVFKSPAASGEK

SMILES: CCCCCCCCCCCCCCCCCC(=O)NCCO
- Activity [1]: inactive

SMILES: CCCCCCCC/C=C\CCCCCCCC(=O)N[C@@H](C)CO
- Activity (Mus musculus [2]): -3.58%
- Activity (Mus musculus [3]): -2.56%
- Activity (Mus musculus [4]): -3.66%
- Activity (Mus musculus [5]): -1.63%
- Activity (Mus musculus [6]): -0.5%
- Activity (Mus musculus [7]): -1.57%
- Activity (Mus musculus [8]): -2.24%
- Activity (Mus musculus [9]): -2.24%
- Activity (Mus musculus [10]): -1.8%

SMILES: Cc1c(C(=O)NN2CCCCC2)nn(-c2ccc(Cl)cc2Cl)c1-c1ccc(Cl)cc1 [RIMONABANT]
- Activity (Mus musculus [11]): 94.16 mg/dL
- Activity (Mus musculus [12]): 125.3 IU/L
- Activity (Mus musculus [13]): 1.286 mg/dL
- Activity (Mus musculus [14]): 19.8%
- Activity (Mus musculus [15]): -15.5%
- Activity (Mus musculus [16]): -20.7%
- Activity (Mus musculus [17]): -16.2%
- Activity (Mus musculus [18]): -11%
- Activity (Mus musculus [19]): 0.86%
- Activity (Mus musculus [20]): -4.5%
- Activity (Mus musculus [21]): -1.9%
- Activity (Mus musculus [22]): -4.5%
- Activity (Mus musculus [23]): -4.5%
- Activity (Mus musculus [24]): -3.1%
- Activity (Mus musculus [25]): -4.6%
- Activity (Mus musculus [26]): -3.5%
- Activity (Mus musculus [27]): -3.2%
- Activity (Mus musculus [28]): -0.6%
- Activity (Mus musculus [29]): inactive
- Activity (Mus musculus [30]): Active
- Activity (Mus musculus [31]): inactive
- Activity (Mus musculus [32]): -0.9%
- Activity (Mus musculus [33]): -3.5%
- Activity (Mus musculus [34]): -2.4%
- Activity (Mus musculus [35]): -3.1%
- Activity (Mus musculus [36]): -2.2%
- Activity (Mus musculus [37]): 0.8%
- Activity (Mus musculus [38]): 1.5%
- Activity (Mus musculus [39]): 1.6%
- Activity (Mus musculus [40]): 0.9%
- Activity (Mus musculus [41]): 3.2%
- Activity (Mus musculus [42]): 0.3%

SMILES: CCCCC/C=C\C/C=C\CCCCCCCC(=O)NCCO [LINOLEOYLETHANOLAMIDE]
- EC50 [43]: 630 nM
